The source of these data is patent US20100004125A1 (priority 2007, published 2010).

This test has as its system Pyricularia oryzae. It counts as cell-based.

Where two headings read alike, the source gives them in different places.

Consider `CC1(C)CC/C(=C\c2ccc(Cl)cc2)C1(O)Cn1cncn1` (single isomer, unassigned; (+)) [Triticonazol, (+) E-5-(4-chlorobenzylidene)-2,2-dimethyl-1-(1H-1,2,4-triazol-1-ylmethyl)cyclopentanol], for which the “Efficacy (%)” value (single compound, Conc 2 ppm, micro titer plate, 405 nm, 7 days after inoculation) is 44%. For the molecule `CN/C(=N\[N+](=O)[O-])NCc1cnc(Cl)s1` [Chlothianidin, (E)-1-(2-chloro-1,3-thiazol-5-ylmethyl)-3-methyl-2-nitroguanidine], the “Efficacy (%)” value came out at 8%.
